Data on 11 compounds can be found in ChEMBL document CHEMBL1201862, “PubChem BioAssay data set” (2004).

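How tested: cells in 96-well plates exposed to compound for 48 hours at five concentrations. GI50 is the concentration that inhibits growth by half.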 Active and inactive are the calls of the source. Cut-off read from the data, not from the text of the source: active = GI50 up to about 1.1 µM and inactive = higher.

Among the test systems are A498; CAKI-1; EKVX; HL-60; HOP-92; HT-29; IGROV-1; LOX IMVI; MDA-MB-231; Malme-3M; NCI-H460; SF-295; SK-MEL-2; SK-OV-3; SN12C; SR; UACC-62; MOLT-4; SF-539.
Experiment in all cases: NCI tumour cell line growth inhibition, 48 h

For the compound `Cc1cc(C)c2c(SCc3ccc(Cl)cc3Cl)nc(N)nc2n1`, the GI50 in the experiment with A498 is > 100 µM (inactive); in the experiment on CAKI-1, > 100 µM (inactive); in the experiment with EKVX it was > 100 µM (inactive); with HL-60 it was > 100 µM (inactive); with HOP-92 it was 15.9 µM (inactive); in the experiment with HT-29 it was > 100 µM (inactive). The GI50 is 28.7 µM (inactive) with IGROV-1; 28.9 µM (inactive) with LOX IMVI; > 100 µM (inactive) in the experiment on MDA-MB-231; 32 µM (inactive) in the experiment on Malme-3M; 21.7 µM (inactive) with NCI-H460; > 100 µM (inactive) in the experiment with SF-295. Moreover, the GI50 was 50.1 µM (inactive) with SK-MEL-2; > 100 µM (inactive) with SK-OV-3; 21.2 µM (inactive) in the experiment with SN12C; 33 µM (inactive) in the experiment with SR; > 100 µM (inactive) in the experiment on UACC-62.

For the compound `Cc1cc(N)ccc1C=O`, the GI50 with A498, in the experiment with CAKI-1, in the experiment with EKVX, in the experiment with HL-60, with HOP-92 and in the experiment with HT-29 was > 100 µM (inactive) each time. Also, the GI50 with IGROV-1, in the experiment with LOX IMVI, in the experiment with MDA-MB-231, with MOLT-4, in the experiment with Malme-3M and in the experiment on NCI-H460 was > 100 µM (inactive) throughout. Further, the GI50 in the experiment with SF-539, in the experiment on SK-MEL-2, with SK-OV-3, in the experiment on SN12C, in the experiment with SR and in the experiment with UACC-62 was > 100 µM (inactive) in each case.

On to `COc1ccc(/C=N/NC(=O)c2ccccc2Nc2ccccc2C(=O)N/N=C/c2ccc(OC)c(OC)c2)cc1OC`, for which the GI50 is > 100 µM (inactive) with A498; > 100 µM (inactive) in the experiment on CAKI-1; > 100 µM (inactive) with EKVX; > 100 µM (inactive) in the experiment with HL-60; 71.9 µM (inactive) in the experiment on HOP-92; > 100 µM (inactive) in the experiment on HT-29. Moreover, the GI50 in the experiment on IGROV-1 is > 100 µM (inactive); with MDA-MB-231, 29.6 µM (inactive); with MOLT-4 it was > 100 µM (inactive); in the experiment with Malme-3M it was 51.5 µM (inactive); in the experiment on NCI-H460, > 100 µM (inactive); in the experiment on SF-295, 39.9 µM (inactive). Besides, the GI50 in the experiment with SK-MEL-2, in the experiment with SK-OV-3, in the experiment with SN12C, with SR and in the experiment with UACC-62 was > 100 µM (inactive) throughout.

Take `Cc1cc2c(C(C)C)c(O)c(O)c(/C=N/c3cc(C(F)(F)F)ccc3Cl)c2c(O)c1-c1c(C)cc2c(C(C)C)c(O)c(O)c(/C=N/c3cc(C(F)(F)F)ccc3Cl)c2c1O`: the GI50 is 64.3 µM (inactive) in the experiment on A498; 48.3 µM (inactive) in the experiment with CAKI-1; 98.6 µM (inactive) with EKVX; 26.9 µM (inactive) with HL-60; 16.6 µM (inactive) with HOP-92; 32.5 µM (inactive) with HT-29. For the same compound, the GI50 in the experiment on IGROV-1 was 25.1 µM (inactive); with LOX IMVI it was 22.6 µM (inactive); with MDA-MB-231 it was 25.6 µM (inactive); in the experiment on Malme-3M, 32.8 µM (inactive); with NCI-H460, 31.3 µM (inactive); in the experiment on SF-539, 58.6 µM (inactive). Moreover, the GI50 in the experiment on SK-MEL-2 was 35.3 µM (inactive); in the experiment on SK-OV-3, 12.5 µM (inactive); in the experiment on SN12C, 49.1 µM (inactive); with SR, 25.4 µM (inactive); in the experiment on UACC-62 it was 24.6 µM (inactive).

For `COc1ccc(/C=C2\N=C(SC)N(CN3CCOCC3)C2=O)cc1`, the GI50 in the experiment on A498 is 34 µM (inactive); in the experiment on EKVX, 55.2 µM (inactive); in the experiment on HL-60, 56.9 µM (inactive); with HOP-92 it was 5.38 µM (inactive); in the experiment on HT-29 it was 27.5 µM (inactive); in the experiment with IGROV-1, 37.5 µM (inactive). Besides, the GI50 in the experiment with LOX IMVI is 37.2 µM (inactive); in the experiment with MDA-MB-231 it was > 100 µM (inactive); in the experiment on MOLT-4, 36.4 µM (inactive); in the experiment on Malme-3M, 72.6 µM (inactive); in the experiment with SF-295 it was 98.9 µM (inactive); with SK-MEL-2 it was > 100 µM (inactive). Moreover, the GI50 in the experiment on SK-OV-3 is > 100 µM (inactive); in the experiment with SN12C, > 100 µM (inactive); with SR it was 30.8 µM (inactive); with UACC-62, 40.2 µM (inactive).

Turning to `COc1ccc(N2CCOCC2)cc1`, the GI50 in the experiment with A498, in the experiment on CAKI-1, in the experiment with EKVX, in the experiment with HL-60, in the experiment on HOP-92 and with HT-29 was > 100 µM (inactive) throughout. Further, the GI50 in the experiment on IGROV-1, in the experiment on MDA-MB-231, with MOLT-4, with Malme-3M, with NCI-H460 and in the experiment on SF-295 was > 100 µM (inactive) in each case. For the same compound, the GI50 with SF-539, in the experiment with SK-MEL-2, with SK-OV-3, with SN12C, with SR and in the experiment on UACC-62 was > 100 µM (inactive) throughout.

Take `CCN(CC)c1ccc2cc(C(=O)Nc3ccc(C)cc3)c(=N)oc2c1`: the GI50 in the experiment with A498, in the experiment with CAKI-1, in the experiment with EKVX, in the experiment on HL-60, in the experiment on HOP-92 and in the experiment with HT-29 was > 100 µM (inactive) throughout. Also, the GI50 in the experiment on IGROV-1, in the experiment on LOX IMVI, in the experiment on MDA-MB-231, in the experiment on MOLT-4, in the experiment with Malme-3M and with NCI-H460 was > 100 µM (inactive) each time. The GI50 in the experiment with SK-MEL-2, with SK-OV-3, in the experiment with SN12C, with SR and in the experiment with UACC-62 was > 100 µM (inactive) each time.

In the case of `O=c1[nH][nH]c(=O)n1/N=C/c1ccccc1`, the GI50 in the experiment with A498, in the experiment on CAKI-1, in the experiment with EKVX, in the experiment with HL-60, with HOP-92 and in the experiment on HT-29 was > 100 µM (inactive) throughout. The GI50 in the experiment with IGROV-1, in the experiment with LOX IMVI, with MDA-MB-231, in the experiment on MOLT-4, in the experiment with NCI-H460 and in the experiment with SF-295 was > 100 µM (inactive) throughout. Further, the GI50 in the experiment with SF-539, with SK-MEL-2, in the experiment with SK-OV-3, in the experiment on SN12C, in the experiment with SR and in the experiment on UACC-62 was > 100 µM (inactive) throughout.

On to `OC1CCCCCCCCCCC1[S+]1CCCC1.O[B-](F)(F)F` (stereo not drawn), for which the GI50 was > 100 µM (inactive) in the experiment on A498; > 100 µM (inactive) in the experiment on CAKI-1; > 100 µM (inactive) with EKVX; > 100 µM (inactive) in the experiment on HL-60; 44.1 µM (inactive) in the experiment on HOP-92; 88.9 µM (inactive) with HT-29. In addition, the GI50 with IGROV-1 is > 100 µM (inactive); in the experiment with LOX IMVI, > 100 µM (inactive); in the experiment with MDA-MB-231 it was > 100 µM (inactive); in the experiment on MOLT-4, > 100 µM (inactive); in the experiment with Malme-3M, 42 µM (inactive); in the experiment with NCI-H460, > 100 µM (inactive). Besides, the GI50 in the experiment with SF-295, in the experiment on SF-539, in the experiment on SK-MEL-2, in the experiment with SK-OV-3, with SN12C and in the experiment on SR was > 100 µM (inactive) each time. For the same compound, in the experiment with UACC-62, the GI50 was > 100 µM (inactive).

Regarding `CCN(CC)CCNc1ccc(/N=N/c2ccc(S(N)(=O)=O)cc2)c2ccccc12`, the GI50 was 14.1 µM (inactive) in the experiment with A498; 13.7 µM (inactive) with CAKI-1; 19 µM (inactive) in the experiment on EKVX; 14.5 µM (inactive) in the experiment on HL-60; 14.9 µM (inactive) in the experiment with HOP-92; 5.96 µM (inactive) with HT-29. Also, the GI50 with IGROV-1 was 13.1 µM (inactive); with LOX IMVI, 2.65 µM (inactive); with MDA-MB-231, 4.33 µM (inactive); in the experiment with MOLT-4 it was 6.25 µM (inactive); in the experiment on Malme-3M, 15.7 µM (inactive); in the experiment with NCI-H460, 7.4 µM (inactive). The GI50 with SF-295 is 4.3 µM (inactive); in the experiment on SF-539, 3.63 µM (inactive); in the experiment with SK-MEL-2 it was 5.9 µM (inactive); in the experiment on SN12C, 8.89 µM (inactive); in the experiment on SR, 2.1 µM (inactive); in the experiment on UACC-62, 8.61 µM (inactive).

With `CC1=C(CO)C2=C(C)C3(CC3)[C@@](C)(O)C(=O)C2=C1` [IROFULVEN], the GI50 is 0.179 µM (active) in the experiment with A498; 0.265 µM (active) with CAKI-1; 0.19 µM (active) in the experiment with EKVX; 0.237 µM (active) with HL-60; 0.309 µM (active) in the experiment with HOP-92; 0.234 µM (active) with HT-29. Further, the GI50 was 0.149 µM (active) in the experiment with IGROV-1; 0.582 µM (active) in the experiment on LOX IMVI; 0.303 µM (active) in the experiment with MDA-MB-231; 0.785 µM (active) with MOLT-4; 0.218 µM (active) in the experiment on Malme-3M; 0.0467 µM (active) in the experiment on NCI-H460. Moreover, the GI50 in the experiment on SF-295 was 0.302 µM (active); in the experiment with SF-539, 0.172 µM (active); with SK-MEL-2 it was 0.196 µM (active); in the experiment with SK-OV-3, 0.248 µM (active); in the experiment on SN12C it was 0.409 µM (active); in the experiment on SR, 0.792 µM (active).
